Structures are written as SMILES.

The IC50 is the concentration that inhibits the measured activity by half.

In test [1] the target is T1, Rhodopsin kinase GRK1 (Homo sapiens) (UniProt Q15835).
T1 sequence (whole entry): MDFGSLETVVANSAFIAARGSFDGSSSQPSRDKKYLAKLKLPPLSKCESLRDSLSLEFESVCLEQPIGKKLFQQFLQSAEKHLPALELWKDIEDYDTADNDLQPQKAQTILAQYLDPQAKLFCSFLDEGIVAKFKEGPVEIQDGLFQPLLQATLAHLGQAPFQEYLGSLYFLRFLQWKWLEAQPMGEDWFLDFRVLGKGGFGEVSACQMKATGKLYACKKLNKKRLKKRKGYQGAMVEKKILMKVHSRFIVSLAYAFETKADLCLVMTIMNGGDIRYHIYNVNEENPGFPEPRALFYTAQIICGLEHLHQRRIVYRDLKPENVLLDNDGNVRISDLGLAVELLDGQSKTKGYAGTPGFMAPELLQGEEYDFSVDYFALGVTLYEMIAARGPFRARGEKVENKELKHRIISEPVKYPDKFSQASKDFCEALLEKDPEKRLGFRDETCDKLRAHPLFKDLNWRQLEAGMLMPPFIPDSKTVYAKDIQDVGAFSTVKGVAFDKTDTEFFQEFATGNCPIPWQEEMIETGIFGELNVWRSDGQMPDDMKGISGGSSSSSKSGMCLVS
The settings on record: at 10 µM.

The test system of test [2] is Tyrosine-protein kinase ABL1 (Homo sapiens), P00519 [H396P]. The experiment in a line: Selectivity interaction (KinomeScan (DiscoverX)) EUB0001079a ABL1. The conditions noted are these: at 1 µM.
Test [3] has as its target Mitogen-activated protein kinase 1 (Homo sapiens, UniProt P28482). The test is described as follows: Selectivity interaction (Millipore kinase profiler) EUB0000124b MAPK1. The settings on record: at 10 µM.
Test [4] has as its target Calcium/calmodulin-dependent protein kinase type 1D (Homo sapiens) (UniProt Q8IU85). The test is described as follows: Selectivity interaction (KinomeScan (DiscoverX)) EUB0000092b CAMK1D. The conditions noted are these: at 10 µM.
The target of test [5] is Microtubule-associated serine/threonine-protein kinase 1 (Homo sapiens) (UniProt Q9Y2H9). The experiment in a line: Selectivity interaction (KinomeScan (DiscoverX)) EUB0000092b MAST1. The conditions noted are these: at 10 µM.
Test [6] addresses Calcium/calmodulin-dependent protein kinase type 1B (Homo sapiens) (UniProt Q6P2M8). The test is described as follows: Selectivity interaction (KinomeScan (DiscoverX)) EUB0001049a PNCK. The conditions noted are these: at 1 µM.
For test [7], the target named is T2, Serine/threonine-protein kinase DCLK1 (Homo sapiens) (UniProt O15075).
T2 sequence (whole entry): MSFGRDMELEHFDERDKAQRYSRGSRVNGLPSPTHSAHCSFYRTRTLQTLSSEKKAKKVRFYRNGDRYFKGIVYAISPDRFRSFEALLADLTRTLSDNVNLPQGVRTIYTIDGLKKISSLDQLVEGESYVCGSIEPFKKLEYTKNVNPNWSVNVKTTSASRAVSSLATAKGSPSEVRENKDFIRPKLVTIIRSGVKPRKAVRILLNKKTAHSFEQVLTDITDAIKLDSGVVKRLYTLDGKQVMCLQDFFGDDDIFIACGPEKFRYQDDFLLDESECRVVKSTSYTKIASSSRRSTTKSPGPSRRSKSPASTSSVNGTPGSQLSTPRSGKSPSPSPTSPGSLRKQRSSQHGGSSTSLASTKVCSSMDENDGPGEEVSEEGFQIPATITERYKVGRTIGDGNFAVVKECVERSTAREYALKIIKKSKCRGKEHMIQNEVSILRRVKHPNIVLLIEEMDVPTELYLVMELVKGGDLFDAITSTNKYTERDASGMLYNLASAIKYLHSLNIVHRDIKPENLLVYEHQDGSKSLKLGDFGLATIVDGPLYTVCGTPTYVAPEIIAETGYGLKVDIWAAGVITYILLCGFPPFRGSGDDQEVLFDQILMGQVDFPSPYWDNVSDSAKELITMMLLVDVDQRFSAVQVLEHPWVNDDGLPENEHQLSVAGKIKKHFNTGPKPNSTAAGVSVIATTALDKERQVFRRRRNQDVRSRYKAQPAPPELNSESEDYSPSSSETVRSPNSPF
The experiment in a line: Selectivity interaction (KinomeScan (DiscoverX)) EUB0000655a DCLK1. The conditions noted are these: at 10 µM.

Test [8] has as its target Tyrosine-protein kinase Lck (Homo sapiens, UniProt P06239). The experiment in a line: Selectivity interaction (KinomeScan (DiscoverX)) EUB0000655a LCK. The settings on record: at 10 µM.
Test [9] addresses Leukocyte tyrosine kinase receptor (Homo sapiens, UniProt P29376). The experiment in a line: Selectivity interaction (KinomeScan (DiscoverX)) EUB0000695a LTK. The conditions noted are these: at 100 nM.
The target in test [10] is Protein arginine N-methyltransferase 1 (Homo sapiens, UniProt Q99873). The test is described as follows: Selectivity interaction (Transferase panel (protein, RNA, and DNA methyltransferases. and EP300 (acetyltransferase))) EUB0000270b PRMT1.
Protein arginine N-methyltransferase 1, sequence (Q99873 whole entry, looked up): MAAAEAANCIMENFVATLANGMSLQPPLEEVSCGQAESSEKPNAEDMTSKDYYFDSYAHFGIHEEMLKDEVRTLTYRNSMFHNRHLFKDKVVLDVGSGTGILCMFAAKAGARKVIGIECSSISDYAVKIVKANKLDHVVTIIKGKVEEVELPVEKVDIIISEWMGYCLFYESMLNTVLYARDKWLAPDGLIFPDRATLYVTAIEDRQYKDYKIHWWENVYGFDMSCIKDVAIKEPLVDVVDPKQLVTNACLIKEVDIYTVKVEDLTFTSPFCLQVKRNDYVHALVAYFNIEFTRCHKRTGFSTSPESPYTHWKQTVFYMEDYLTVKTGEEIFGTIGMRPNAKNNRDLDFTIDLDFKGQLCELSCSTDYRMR
Test [11] has as its target T3, Megakaryocyte-associated tyrosine-protein kinase (Homo sapiens) (UniProt P42679).
T3 sequence (whole entry): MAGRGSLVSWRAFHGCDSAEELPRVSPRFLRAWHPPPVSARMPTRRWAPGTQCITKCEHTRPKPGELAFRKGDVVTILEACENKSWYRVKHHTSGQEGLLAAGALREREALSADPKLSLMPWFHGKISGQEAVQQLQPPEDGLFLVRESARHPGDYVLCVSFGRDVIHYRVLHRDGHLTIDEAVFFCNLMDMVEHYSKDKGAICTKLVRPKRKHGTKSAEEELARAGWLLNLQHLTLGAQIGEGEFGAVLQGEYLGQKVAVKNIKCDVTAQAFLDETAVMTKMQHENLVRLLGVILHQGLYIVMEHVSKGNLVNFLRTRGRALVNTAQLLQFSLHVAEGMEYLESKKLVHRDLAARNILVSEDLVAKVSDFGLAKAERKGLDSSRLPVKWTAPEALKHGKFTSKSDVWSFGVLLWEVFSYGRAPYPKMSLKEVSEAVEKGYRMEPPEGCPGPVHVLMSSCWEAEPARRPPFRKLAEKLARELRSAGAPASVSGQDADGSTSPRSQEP
The test is described as follows: Selectivity interaction (KinomeScan (DiscoverX)) EUB0000666a MATK. The conditions noted are these: at 10 µM.

Another test deals with Aurora kinase B (Homo sapiens, UniProt Q96GD4). The test is described as follows: Selectivity interaction (Kinase panel (Z-LYTE Assay)) EUB0001632a AURKB. The conditions noted are these: at 10 µM.
Aurora kinase B, sequence (Q96GD4 whole entry): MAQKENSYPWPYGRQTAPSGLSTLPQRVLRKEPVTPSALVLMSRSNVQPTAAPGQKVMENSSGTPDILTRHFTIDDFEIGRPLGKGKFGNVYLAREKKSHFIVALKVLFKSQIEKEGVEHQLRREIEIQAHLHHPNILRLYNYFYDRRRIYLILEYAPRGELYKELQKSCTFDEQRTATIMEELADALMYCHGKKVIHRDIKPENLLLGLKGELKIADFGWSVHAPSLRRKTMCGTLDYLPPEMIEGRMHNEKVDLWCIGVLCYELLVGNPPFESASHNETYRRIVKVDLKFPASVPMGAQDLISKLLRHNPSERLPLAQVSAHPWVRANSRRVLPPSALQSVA
The target of test [12] is Tyrosine-protein kinase receptor UFO (Homo sapiens) (UniProt P30530). The test is described as follows: Selectivity interaction (Kinase panel (Z-LYTE Assay)) EUB0001632a AXL. The settings on record: at 10 µM.
Tyrosine-protein kinase receptor UFO (Homo sapiens), sequence (P30530 whole entry): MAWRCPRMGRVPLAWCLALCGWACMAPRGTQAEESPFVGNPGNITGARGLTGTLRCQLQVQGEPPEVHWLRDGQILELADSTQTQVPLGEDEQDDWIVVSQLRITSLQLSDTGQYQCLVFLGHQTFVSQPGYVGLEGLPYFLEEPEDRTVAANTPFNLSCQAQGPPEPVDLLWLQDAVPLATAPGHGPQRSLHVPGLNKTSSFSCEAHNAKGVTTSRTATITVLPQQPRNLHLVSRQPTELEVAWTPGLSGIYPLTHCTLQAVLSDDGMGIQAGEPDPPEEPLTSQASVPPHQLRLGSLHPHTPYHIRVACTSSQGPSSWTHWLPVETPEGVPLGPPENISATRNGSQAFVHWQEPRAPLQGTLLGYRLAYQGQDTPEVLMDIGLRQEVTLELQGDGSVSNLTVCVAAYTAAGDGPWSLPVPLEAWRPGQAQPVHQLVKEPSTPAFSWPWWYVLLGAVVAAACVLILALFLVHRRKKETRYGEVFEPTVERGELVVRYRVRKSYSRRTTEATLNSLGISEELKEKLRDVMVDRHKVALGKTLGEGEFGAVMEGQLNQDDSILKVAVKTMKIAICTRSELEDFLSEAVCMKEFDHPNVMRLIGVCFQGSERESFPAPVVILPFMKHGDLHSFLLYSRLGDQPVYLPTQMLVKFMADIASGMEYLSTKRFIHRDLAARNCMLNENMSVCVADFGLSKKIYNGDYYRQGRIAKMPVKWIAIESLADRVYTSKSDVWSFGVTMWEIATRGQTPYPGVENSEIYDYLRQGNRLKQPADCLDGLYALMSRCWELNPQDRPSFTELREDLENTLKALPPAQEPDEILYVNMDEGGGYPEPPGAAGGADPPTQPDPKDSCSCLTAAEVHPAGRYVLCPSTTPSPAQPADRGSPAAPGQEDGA
The target of test [13] is Tyrosine-protein kinase ABL2 (Homo sapiens, UniProt P42684). The experiment in a line: Selectivity interaction (ActivX KiNativ screen (kinase selectivity in THP-1 cell lysates)) EUB0000639a ABL2. It is filed as subcellular. The settings on record: lysate, at 0.04 µM.
Tyrosine-protein kinase ABL2, sequence (P42684 whole entry): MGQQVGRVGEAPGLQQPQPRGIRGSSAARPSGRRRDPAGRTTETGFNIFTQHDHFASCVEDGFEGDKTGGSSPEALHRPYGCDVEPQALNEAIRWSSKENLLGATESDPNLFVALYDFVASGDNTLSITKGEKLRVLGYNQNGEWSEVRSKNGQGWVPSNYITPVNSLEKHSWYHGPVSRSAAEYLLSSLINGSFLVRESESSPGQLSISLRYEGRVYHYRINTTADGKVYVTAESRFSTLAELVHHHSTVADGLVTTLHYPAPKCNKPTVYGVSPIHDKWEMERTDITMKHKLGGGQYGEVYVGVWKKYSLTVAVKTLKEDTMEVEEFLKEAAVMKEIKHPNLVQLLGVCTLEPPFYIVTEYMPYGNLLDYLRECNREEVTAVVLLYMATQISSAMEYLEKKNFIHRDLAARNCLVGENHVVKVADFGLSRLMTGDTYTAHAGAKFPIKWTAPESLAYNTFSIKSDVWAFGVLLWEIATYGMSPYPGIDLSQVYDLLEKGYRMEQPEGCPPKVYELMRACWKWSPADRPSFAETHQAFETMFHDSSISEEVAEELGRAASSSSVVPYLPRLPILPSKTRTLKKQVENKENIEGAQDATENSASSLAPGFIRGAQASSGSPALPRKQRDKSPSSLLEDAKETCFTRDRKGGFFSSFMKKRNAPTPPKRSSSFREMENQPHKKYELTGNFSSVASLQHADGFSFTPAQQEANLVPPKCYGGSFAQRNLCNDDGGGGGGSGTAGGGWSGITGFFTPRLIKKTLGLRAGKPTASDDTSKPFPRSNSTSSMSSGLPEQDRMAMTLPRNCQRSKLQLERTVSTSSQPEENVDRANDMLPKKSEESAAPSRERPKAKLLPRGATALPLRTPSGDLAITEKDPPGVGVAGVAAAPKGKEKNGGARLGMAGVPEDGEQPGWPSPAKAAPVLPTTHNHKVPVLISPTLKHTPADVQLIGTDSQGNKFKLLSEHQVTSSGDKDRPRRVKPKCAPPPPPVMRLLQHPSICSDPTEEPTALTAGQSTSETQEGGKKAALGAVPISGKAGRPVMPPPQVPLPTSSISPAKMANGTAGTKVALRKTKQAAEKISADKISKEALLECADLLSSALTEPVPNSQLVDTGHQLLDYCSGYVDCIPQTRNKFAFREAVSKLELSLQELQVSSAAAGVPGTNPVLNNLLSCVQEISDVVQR
Test [14] concerns the target Calcium/calmodulin-dependent protein kinase type 1D (Homo sapiens) (UniProt Q8IU85). The test is described as follows: Selectivity interaction (ActivX KiNativ screen (kinase selectivity in THP-1 cell lysates)) EUB0000639a CAMK1D. Type of test: subcellular. The conditions noted are these: lysate, at 5 µM.
Test [15] concerns the target Serine/threonine-protein kinase PAK 6 (Homo sapiens) (UniProt Q9NQU5). The experiment in a line: Selectivity interaction (KinomeScan (DiscoverX)) EUB0000229b PAK6. The settings on record: at 10 µM.
Another test concerns the target Melanocortin receptor 3 (Homo sapiens, UniProt P41968). The experiment in a line: Selectivity interaction (Melanocortin MC3 receptor binding assay, human recombinant ) EUB0000877a MC3R.

Calcium/calmodulin-dependent protein kinase type 1D (Homo sapiens), sequence (Q8IU85 whole entry, looked up): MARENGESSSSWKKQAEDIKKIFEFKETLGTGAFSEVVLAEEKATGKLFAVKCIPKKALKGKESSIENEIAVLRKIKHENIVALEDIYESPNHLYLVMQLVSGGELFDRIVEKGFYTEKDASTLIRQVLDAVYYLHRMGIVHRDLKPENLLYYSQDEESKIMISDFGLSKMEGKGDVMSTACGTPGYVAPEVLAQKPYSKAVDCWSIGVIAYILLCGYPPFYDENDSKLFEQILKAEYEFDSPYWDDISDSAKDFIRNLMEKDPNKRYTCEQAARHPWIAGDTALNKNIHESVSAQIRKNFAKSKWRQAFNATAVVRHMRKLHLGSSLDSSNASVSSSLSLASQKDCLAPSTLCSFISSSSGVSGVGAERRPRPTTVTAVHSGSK
Leukocyte tyrosine kinase receptor, sequence (P29376 whole entry): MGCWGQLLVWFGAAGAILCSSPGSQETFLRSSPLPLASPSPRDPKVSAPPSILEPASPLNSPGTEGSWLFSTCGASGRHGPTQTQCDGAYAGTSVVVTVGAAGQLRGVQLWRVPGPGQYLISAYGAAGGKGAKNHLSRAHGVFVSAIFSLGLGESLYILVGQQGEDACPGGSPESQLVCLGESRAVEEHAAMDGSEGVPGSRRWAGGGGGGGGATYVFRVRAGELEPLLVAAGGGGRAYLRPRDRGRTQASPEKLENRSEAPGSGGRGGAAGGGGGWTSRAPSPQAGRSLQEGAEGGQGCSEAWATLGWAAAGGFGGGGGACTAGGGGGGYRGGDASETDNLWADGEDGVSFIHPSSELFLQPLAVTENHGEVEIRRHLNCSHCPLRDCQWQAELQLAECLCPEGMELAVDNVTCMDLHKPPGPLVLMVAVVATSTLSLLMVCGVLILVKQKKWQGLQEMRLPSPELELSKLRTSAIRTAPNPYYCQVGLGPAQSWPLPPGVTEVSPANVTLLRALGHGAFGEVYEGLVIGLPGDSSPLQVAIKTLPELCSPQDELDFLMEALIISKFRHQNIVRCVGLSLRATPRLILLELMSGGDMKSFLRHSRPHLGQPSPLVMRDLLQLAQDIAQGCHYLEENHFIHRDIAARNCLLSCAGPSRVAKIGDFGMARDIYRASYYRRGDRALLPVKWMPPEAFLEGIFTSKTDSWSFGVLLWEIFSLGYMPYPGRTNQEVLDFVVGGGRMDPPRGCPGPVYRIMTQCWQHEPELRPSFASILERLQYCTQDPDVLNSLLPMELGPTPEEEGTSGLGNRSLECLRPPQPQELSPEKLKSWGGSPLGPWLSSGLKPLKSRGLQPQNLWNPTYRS
Tyrosine-protein kinase Lck, sequence (P06239 2-509 limits assumed): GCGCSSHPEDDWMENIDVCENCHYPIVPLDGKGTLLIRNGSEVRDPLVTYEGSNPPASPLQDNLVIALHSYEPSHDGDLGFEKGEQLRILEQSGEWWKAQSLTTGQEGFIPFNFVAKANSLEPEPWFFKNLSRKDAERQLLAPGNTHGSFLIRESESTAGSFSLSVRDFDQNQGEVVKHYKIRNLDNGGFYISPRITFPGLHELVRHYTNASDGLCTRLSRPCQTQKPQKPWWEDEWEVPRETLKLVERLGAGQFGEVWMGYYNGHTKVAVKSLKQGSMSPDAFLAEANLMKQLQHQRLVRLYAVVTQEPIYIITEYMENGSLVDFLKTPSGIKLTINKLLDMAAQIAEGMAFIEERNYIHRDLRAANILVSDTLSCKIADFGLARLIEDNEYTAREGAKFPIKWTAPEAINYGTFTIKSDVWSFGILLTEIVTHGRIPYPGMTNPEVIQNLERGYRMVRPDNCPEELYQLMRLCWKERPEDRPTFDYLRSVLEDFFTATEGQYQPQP
Mitogen-activated protein kinase 1, sequence (P28482 whole entry): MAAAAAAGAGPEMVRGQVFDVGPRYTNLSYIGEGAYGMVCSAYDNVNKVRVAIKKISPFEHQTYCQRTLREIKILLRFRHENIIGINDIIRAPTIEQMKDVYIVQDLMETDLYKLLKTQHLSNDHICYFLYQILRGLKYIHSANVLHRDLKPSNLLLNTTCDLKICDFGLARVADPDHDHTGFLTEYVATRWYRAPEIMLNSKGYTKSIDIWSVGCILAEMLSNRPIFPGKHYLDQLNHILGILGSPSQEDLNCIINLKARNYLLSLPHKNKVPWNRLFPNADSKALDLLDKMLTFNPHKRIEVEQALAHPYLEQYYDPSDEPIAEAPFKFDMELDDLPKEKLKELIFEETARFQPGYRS

Take `Cc1cc([C@@H](C)Nc2ccccc2C(=O)O)c2nc(N3CCOCC3)cc(=O)n2c1` [AZD-6482]: the % of control in [1] is 100%.

The compound `Nc1cnc(N2CCc3cc(S(=O)(=O)Nc4c(F)cc(Cl)cc4F)cc(N4CCCC4=O)c32)nc1` [TP-020n] came in with a % of control in test [2] of 86%.

`CC(=O)Nc1cccc(-n2c(=O)n(C3CC3)c(=O)c3c(Nc4ccc(I)cc4F)n(C)c(=O)c(C)c32)c1` yielded a % of control in [3] of 86%.

As to `CCC(=O)N1CCN(c2ccc(-n3c(=O)ccc4cnc5ccc(-c6cnc7ccccc7c6)cc5c43)cc2C(F)(F)F)CC1`, the % of control amounted to 88% in test [4] and 93% in test [5].

Regarding `COc1cc(Nc2nc(C)cc(-c3cnn4nc(OC)ccc34)n2)cc(C(F)(F)F)c1`, the % of control in test [6] came to 100%.

Turning to `CN(C)CCOc1ccc(-c2nc(-c3ccncc3)c(-c3ccc4c(c3)CC/C4=N\O)[nH]2)cc1`, the values for the % of control in test [7] and in [8] were 88% and 29%, respectively.

`Cc1cc(F)c(C(=O)Nc2cccc(-c3nncn3C(C)C)n2)cc1-n1cnc(C2CC2)c1` displayed a % of control in test [9] of 93%.

Take `Cc1cc(CN)cc(C)c1-c1ncn(C)c1-c1cncn1C`: the values for the % activity in test [10] (at 1 µM) and in test [10] (at 10 µM) were > 90% and > 80%, respectively.

In the case of `O=C(NOC[C@H](O)CO)c1ccc(F)c(F)c1Nc1ccc(I)cc1F`, the % of control in test [11] worked out at 100%.

Consider `Cn1cc(-n2cnc3c(NCc4nc5cc(Cl)c(Cl)cc5[nH]4)nc(N4CCOCC4)nc32)cn1`, for which the % of control at Aurora kinase B turned out to be 11.8%; in test [12], 2.06%.

Turning to `CC[C@@H]1[C@H](F)C(=O)N[C@@H]1COc1nccc2cc(C(N)=O)c(OC)cc12` [ZIMLOVISERTIB], the % of inhibition is -16.4% in test [13] and 16.3% in test [14].

Turning to `COc1cc(N(C)c2ccnc3ccc(C(F)(F)F)cc23)cc(OC)c1OC`, the % binding in [15] is 96%.

As to `CCC(=O)N1CC[C@H](Nc2ncnc3c2CN(c2cnc(OC)c(C(F)(F)F)c2)CC3)C1` [LENIOLISIB], the IC50 at Melanocortin receptor 3 is > 30 µM.

(Values after ChEMBL document CHEMBL5465560, “Selectivity Literature for EUbOPEN Chemogenomic Library” (2024).)
